Measurements taken from BindingDB's records for doi:10.1016/0960-894X(96)00018-2 (1996).

Biological target: T1, Prostatic acid phosphatase (Homo sapiens, UniProt P15309)
T1 sequence (P15309 whole entry): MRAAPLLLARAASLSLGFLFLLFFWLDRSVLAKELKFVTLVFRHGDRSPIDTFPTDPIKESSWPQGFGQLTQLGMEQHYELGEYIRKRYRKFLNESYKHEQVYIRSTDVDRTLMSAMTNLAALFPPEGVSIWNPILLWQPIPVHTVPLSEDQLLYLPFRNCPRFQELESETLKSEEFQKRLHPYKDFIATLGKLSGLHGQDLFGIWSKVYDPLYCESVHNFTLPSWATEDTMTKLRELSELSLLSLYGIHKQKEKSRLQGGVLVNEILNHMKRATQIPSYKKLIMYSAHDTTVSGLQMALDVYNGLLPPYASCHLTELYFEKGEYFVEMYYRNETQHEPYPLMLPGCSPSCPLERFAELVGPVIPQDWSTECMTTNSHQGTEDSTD
Assay: ChEBML_158626
Experimental: Inhibition of human prostatic acid phosphatase was determined as inhibition of the hydrolysis of tyrosine phosphate

IC50 | SMILES
> 100 µM | OP(O)(O)=c1c2ccccc2sc2ccccc12 [(9H-Thioxanthen-9-yl)-phosphonic acid]
> 100 µM | OP(O)(O)=c1c2ccccc2ccc2ccccc12 [(5H-Dibenzo[a,d]cyclohepten-5-yl)-phosphonic acid]
